Data as given in patent US9434687B2, “Detection of synthetic cannabinoids” (priority 2011, dated 2016).
Like-named read-outs stand apart in the source and are kept apart here.

Key:
Format in all cases: binding, sheep
[1] = test system: IgG fraction of antiserum raised to Immunogen VIII; settings: Antibody to Immunogen VIII, cross-reactants at 100 ng/ml, 1000 ng/ml, standard JWH-018
Method: (§1) An aqueous solution of each immunogen was formulated with Freund's Complete Adjuvant (FCA) to form an emulsion consisting of 2 mg/ml*immunogen in 50% (v/v) FCA. Three sheep were immunised with this emulsion (1° immunisation), 0.25 ml being intramuscularly injected at each of four sites in the flank of each animal. Subsequent immunizations (boosts) contained 1 mg/ml*immunogen. All boosts were emulsified in 50% (v/v) Freund's Incomplete Adjuvant (FIA) and were administered in the same manner as the 1° immunisation, at monthly intervals. Blood sampling took place 7 to 14 days after each boost. *The general procedure for immunogen administration is outlined above, however, it was necessary to deviate from this protocol in some cases, due to reduced immunogen concentrations (Immunogens II, IV, VII and VIII) and/or amount available (Immunogen VIII). Any deviations from the protocol described are outlined in Table 5 below and highlighted in bold.
(§2) The wells of an enhanced binding 96 well polystyrene microtiter plate were coated with IgG fraction of antiserum raised to Immunogen I or II, diluted in 10 mM Tris, pH8.5 (125 μl/well). The appropriate antibody coating dilution was determined using standard ELISA checkerboard techniques. The plate was incubated overnight at 4° C., washed 4 times over 10 minutes with Tris buffered saline containing Tween 20 (TBST) and tapped dry. Standard solutions (JWH-018 for Immunogens I and II) were applied at 0, 0.625, 1.25, 2.5, 5, 10, 20 and 40 ng/ml and 50 μl of each was added to the appropriate wells. 75 μl of conjugate (appropriate hapten-HRP) diluted in Tris buffer (pH 7.2) containing EDTA, D-mannitol, sucrose, thimerosal and BSA, was added to each of the wells. The appropriate dilution of conjugate was also determined using standard ELISA checkerboard techniques. The plate was incubated at 25° C. for 1 hour. Excess unbound conjugate was removed by washing 6 times over a 10 minute period with TBST. 125 μl of tetramethylbenzidine (TMB) substrate solution was added to each well of the plate that was then incubated for 20 minutes in the dark at room temperature. The reaction was terminated by addition of 125 μl 0.2M H2SO4 to each well. The absorbance was then measured at 450 nm using a microtiter plate reader. The data are inputted to a computer program called ‘KC Junior’. It is a 4 parameter fit curve and allow the calculation of concentrations between the standard runs. This program is used to calculate the IC50s by dividing the 0 ng/ml OD value by 2 and obtaining the concentration value from the curve for this OD.
(§3) In a similar manner to that described above, the wells of a 96-well microtiter plate were coated with the IgG fraction of the antiserum raised to Immunogens IV, VII or VIII. Standard solutions (JWH-018 for Immunogens IV and VIII, JWH-015 for Immunogen VII) were prepared in TBST at 0, 1.25, 2.5, 5, 10, 20, 40 and 80 ng/ml and conjugate was employed as detection reagent.
(§4) The data set out in Tables 7-10 are generated using antibodies raised against the indicated Immunogens in a competitive binding assay with the indicated tracers, using the indicated standards
(§5) In order to determine the specificity of the competitive ELISAs, standard solutions of a range of structurally similar synthetic cannabinoids and their metabolites were prepared in TBST.
(§6) Using the calibration curves generated and employing a single level of cross reactants, these were used to determine the cross-reactivity of each immunoassay with these substances. These are the standards used for the IC50 and cross-reactivity data generation: […]

[2] = test system: IgG fraction of antiserum raised to Immunogen IV; settings: Antibody to Immunogen IV, cross-reactants at 100 ng/ml, 1000 ng/ml, standard JWH-018
Method: as §1, §2, §3, §4, §5, §6

[3] = test system: IgG fraction of antiserum raised to Immunogen VII; settings: Antibody to Immunogen VII, cross-reactants at 100 ng/ml, 1000 ng/ml, standard JWH-015
Method: as §1, §2, §3, §4, §5, §6

[4] = test system: IgG fraction of antiserum raised to Immunogen I; settings: Antibody to Immunogen I, cross-reactants at 100 ng/ml, 1000 ng/ml, standard JWH-018
Method: as §1, §2
In a similar manner to that described above, the wells of a 96-well microtiter plate were coated with the IgG fraction of the antiserum raised to Immunogens I or II. Standard solutions (JWH-018 for Immunogen I and II) were applied at 0, 0.625, 1.25, 2.5, 5, 10, 20 and 40 ng/ml and conjugate was employed as detection reagent.
as §4, §5, §6

Row | SMILES | % B/B0 [1] | % B/B0 [2] | % B/B0 [3] | % B/B0 [4] | % B/B0 ([1]; listed as JWH-164) | % B/B0 ([2]; listed as JWH-164) | % B/B0 ([3]; listed as JWH-164) | % B/B0 ([4]; listed as JWH-164)
1 | CCCCCCC(C)(C)c1ccc([C@@H]2C[C@H](O)CC[C@H]2CCCO)c(O)c1 (racemic) [(+−)-CP 55,940] | 100.25% | 94.60% | 100.25% | 100.61% |  |  |  | 
2 | CCCCCn1c(O)c(C(=O)c2cccc3ccccc23)c2ccccc21 [2-OH JWH-018, JWH-018 2-hydroxyindole metabolite] | 101.36% | 100.14% | 95.08% | 95.37% |  |  |  | 
3 | CCCCn1c(O)c(C(=O)c2cccc3ccccc23)c2ccccc21 [2-OH JWH-073, JWH-073 2-hydroxyindole metabolite] | 93.42% | 89.63% | 92.65% | 89.62% |  |  |  | 
4 | COc1ccc(C(=O)c2c(C)n(CCN3CCOCC3)c3cc(I)ccc23)cc1 [AM-630, 6-Iodopravadoline] | 89.88% | 90.17% | 99.88% | 91.12% |  |  |  | 
5 | O=C(c1ccc(I)cc1)c1cn(CCCCCF)c2ccccc12 [AM-694 4-iodo isomer] | 13.42% | 27.66% | 98.71% | 73.79% |  |  |  | 
6 | CN1CCCCC1Cn1cc(C(=O)c2cc([N+](=O)[O-])ccc2I)c2ccccc21 (stereo not drawn) [AM-1241] | 102.46% | 91.38% | 94.96% | 85.61% |  |  |  | 
7 | CCCCCCC(C)(C)C1=CC(=O)C(C2CCCC(O)C2)=CC1=O (stereo not drawn) [CP-47,497-para-quinone analogue] | 88.11% | 97.33% | 93.29% | 100.26% |  |  |  | 
8 | CCCCCCCC(C)(C)c1ccc(C2CCCC(O)C2)c(O)c1 (stereo not drawn) [CP-49,497-C8-homologue] | 104.88% | 94.66% | 98.55% | 101.11% |  |  |  | 
9 | CCCCCCC(C)(C)c1cc(O)c2c(c1)OC(C)(C)[C@@H]1CC=C(CO)C[C@@H]21 [HU-210] | 93.42% | 92.53% | 100.39% | 102.57% |  |  |  | 
10 | CCCCCCC(C)(C)c1cc(O)c2c(c1)OC(C)(C)[C@H]1CC=C(CO)C[C@H]21 [HU-211, Dexanabinol] | 92.70% | 93.37% | 96.78% | 103.36% |  |  |  | 
11 | CCCCCCC(C)(C)c1cc(OC)c([C@@H]2C=C(CO)[C@@H]3C[C@H]2C3(C)C)c(OC)c1 [HU-308] | 89.77% | 94.03% | 95.95% | 101.35% |  |  |  | 
12 | CCCCCn1cc(C(=O)c2ccc3ccccc3c2)c2ccccc21 [JWH 018 2′-naphthyl isomer] | 14.94% | 28.13% | 94.98% | 75.90% |  |  |  | 
13 | CCCCCn1cc(C(=O)C23CC4CC(CC(C4)C2)C3)c2ccccc21 [JWH 018 adamantyl analog] | 10.97% | 99.02% | 94.48% | 95.94% |  |  |  | 
14 | CCCCCn1cc(C(=O)Cc2cccc(Cl)c2)c2ccccc21 [JWH 203 3-chloro isomer] | 10.34% | 55.09% | 97.42% | 95.59% |  |  |  | 
15 | CCCCCn1cc(C(=O)Cc2ccccc2OC)c2cc(O)ccc21 [JWH 250 5-hydroxyindole metabolite] | 67.19% | 84.05% | 99.88% | 100.75% |  |  |  | 
16 | COc1ccccc1CC(=O)c1cn(CCCCCC(=O)O)c2ccccc12 [JWH 250 N-(5-carboxypentyl) metabolite] | 89.30% | 89.88% | 97.60% | 86.21% |  |  |  | 
17 | COc1ccccc1CC(=O)c1cn(CCCCCO)c2ccccc12 [JWH 250 N-(5-hydroxypentyl) metabolite] | 42.79% | 76.22% | 96.13% | 75.47% |  |  |  | 
18 | CCCCCn1cc(C(=O)Cc2cccc(C)c2)c2ccccc21 [JWH 251 3-methylphenyl isomer] | 8.97% | 51.15% | 99.32% | 85.90% |  |  |  | 
19 | CCCCCC(C)n1c(C)c(C(=O)c2cccc3ccccc23)c2ccccc21 (stereo not drawn) [JWH-011] | 97.49% | 99.19% | 57.43% | 62.13% |  |  |  | 
20 | CCCCCn1ccc(C(=O)c2cccc3ccccc23)c1 [JWH-030] | 94.25% | 93.17% | 89.66% | 61.17% |  |  |  | 
21 | CCCCn1cc(C(=O)c2ccc(C)c3ccccc23)c2ccccc21 [JWH-073 4-methylnaphthyl analogue] | 19.75% | 7.01% | 78.36% | 45.54% |  |  |  | 
22 | CCCCCn1cc(C(=O)c2c(OC)ccc3ccccc23)c2ccccc21 [JWH-081 2-methoxynaphthyl isomer] | 58.20% | 27.67% | 83.43% | 69.58% |  |  |  | 
23 | CCCCCn1cc(C(=O)c2cccc3ccc(OC)cc23)c2ccccc21 [JWH-081 7-methoxynaphthyl isomer] | 59.51% | 39.20% | 97.60% | 88.26% | 57.93% | 36.14% | 96.13% | 91.86%
24 | COc1ccc(C(=O)c2cn(CCCCCO)c3ccccc23)c2ccccc12 [JWH-081 N-(5-hydroxypentyl) metabolite] | 47.16% | 26.31% | 89.31% | 61.86% |  |  |  | 
25 | CCCCCn1c(C)c(C(=O)c2ccc(OC)c3ccccc23)c2ccccc21 [JWH-098] | 59.80% | 44.03% | 82.85% | 77.58% |  |  |  | 
26 | CCCC(C)(C)c1ccc2c(c1)OC(C)(C)[C@@H]1CC=C(C)C[C@@H]21 [JWH-133] | 100.00% | 98.18% | 101.84% | 100.56% |  |  |  | 
27 | CCCCCn1cc(C(=O)c2ccc(CCC)c3ccccc23)c2ccccc21 [JWH-182] | 30.65% | 12.83% | 98.40% | 107.08% |  |  |  | 
28 | O=C(c1ccc2ccccc2c1)c1cn(CCN2CCOCC2)c2ccccc12 [JWH-200 2′-naphthyl isomer] | 96.12% | 92.29% | 94.65% | 28.57% |  |  |  | 
29 | CCCCCn1cc(C(=O)Cc2ccc(OC)cc2)c2ccccc21 [JWH-201] | 8.26% | 59.03% | 100.25% | 77.14% |  |  |  | 
